Reference: US20240299335A1, “SHELF-STABLE FORMULATIONS OF BENZOYL PEROXIDE AND METHODS OF PRODUCING SAME” (BLUE HILL TECHNOLOGIES LLC, priority 2022, published 2024)
Entries after “also recorded” stand apart in the source; their conditions may differ.

Experiments:
Format in all cases: physicochemical
[1] = Effect of antioxidants on benzene levels in FDA-approved benzoyl peroxide drug products (headspace GC-MS); details: antioxidant added to commercial drug products; 50° C. for 2 days; FIG. 5
Source text: (§1) The method USP <467> Residual Solvents Procedure A was modified from flame ionization detection (FID) to mass spectrometry (MS) detection for benzene in benzoyl peroxide products. […] Identification of benzene was based on the retention time matching to certified reference standards and mass spectral m/z matching to benzene.

[2] = Effect of antioxidants on benzene levels in 10% w/v benzoyl peroxide formulations (headspace GC-MS); details: 10% w/v benzoyl peroxide plus antioxidant
Source text: Agilent 7890B Gas Chromatography (GC) system equipped with 7697A headspace autosampler coupled with 5977B Mass Selective Detector (MS) was used for sample analysis, and a DB-Select 624 UI, 60 m×0.32 mm×1.8 μm GC column (Agilent Technology, Santa Clara, CA) was used to separate benzene from other compounds. Dimethyl sulfoxide (DMSO, GC Headspace Grade) was used for sample preparation (Thermo Fisher Scientific, Waltham, MA). All certified reference standards, solution, and buffer reagents including sodium citrate dihydrate, citric acid, tris, and glycerol were sourced from Sigma-Aldrich, St. Louis, MO.
For benzoyl peroxide stability studies in glycerol, benzoyl peroxide was prepared in a stock suspension of 20% w/v in glycerol and mixed 1:1 with 20% w/v suspensions or v/v solutions of antioxidants in glycerol. For pH experiments, the same stock suspension of benzoyl peroxide was mixed 1:1 with a 50% glycerol solution with 200 mM buffering agent (Citrate buffer pH 3.0, Tris Buffer pH 7.0, or Tris Buffer pH 9.0) for final 75% glycerol solution. The final volume of all reactions was 100 μL in GC headspace vials with 10% solution benzoyl peroxide (10 mg) and 10% antioxidant or 100 mM buffering agent. Vials were immediately crimp sealed for incubation. For analysis, 4.9 mL of DMSO was added to make up the final volume to approximate 5 mL, crimp sealed, and gently vortexed to mix.
Benzene standard was diluted in DMSO for an 11-point calibration ranging from 10 ng/vial to 100 μg/vial. The coefficient of determination R^2 were greater than 0.999. Five (5) mL of DMSO was used for negative control samples.
Benzoyl peroxide products in original packaging were incubated for up to one month at 25° C., 37° C., or 50° C. and sampled periodically. Benzoyl peroxide and products with antioxidant additions or buffering agent additions were prepared and incubated in crimp sealed GC headspace vials.
The method USP <467> Residual Solvents Procedure A was modified from flame ionization detection (FID) to mass spectrometry (MS) detection for benzene in benzoyl peroxide products. The gas chromatography (GC) methods were also modified to allow shorter run time and the method was validated for addition of up to 500 mg benzoyl peroxide product or […] glycerol. Identification of benzene was based on the retention time matching to certified reference standards and mass spectral m/z matching to benzene. Lower limit of detection (LLOD) was 10 ng (equivalent to 0.02 ppm in hand benzoyl peroxide products) and LLOQ was 25 μg. The measurement uncertainty was determined to be 20%.
10% w/v benzoyl peroxide formulations were prepared. […]

[3] = Effect of solvents on benzene levels in 10% w/v benzoyl peroxide formulations (headspace GC-MS); details: 10% benzoyl peroxide in the solvent; 37° C. for 10 days; compared to glycerol or NMP; FIG. 8
Method: as §1
10% w/v benzoyl peroxide formulations were prepared. […] Benzene levels in each formulation were tested at various time points according to the protocols described in Example 1.

[4] = Benzene levels formed by crystalline benzoyl peroxide on incubation (headspace GC-MS); details: incubated at 50° C. for up to 12 days; FIG. 11
Source text: as §1

[5] = 37° C. for up to two weeks, FIG. 3
[6] = 50° C. for up to two weeks, FIG. 4

Row | SMILES | levels of benzene formed in two FDA-approved drug products with added antioxidant [1] | levels of benzene formed in the formulations [2, 5] | levels of benzene formed in the formulations [2, 6] | levels of benzene formed in the formulations [3] | further results
1 | Cc1cc(C(C)(C)C)c(O)c(C(C)(C)C)c1 [BHT, butylated hydroxytoluene] | reduce the degradation of benzoyl peroxide to benzene | reduced the levels of benzene; also recorded: most dramatic reduction | reduced the levels of benzene; also recorded: most dramatic reduction |  | 
2 | CC(=O)Oc1c(C)c(C)c2c(c1C)CCC(C)(CCC[C@H](C)CCC[C@H](C)CCCC(C)C)O2 (stereo partly drawn) [vitamin E acetate] |  | reduced the levels of benzene | reduced the levels of benzene |  | 
3 | CC(C)(C)c1cc(O)ccc1O [TBHQ, tert-butyl hydroquinone] | reduce the degradation of benzoyl peroxide to benzene |  |  |  | 
4 | C[S+](C)[O-] [DMSO, dimethylsulfoxide] |  |  |  | most dramatic reduction in, or complete prevention of, benzene levels | 
5 | O=C(OOC(=O)c1ccccc1)c1ccccc1 [crystalline benzoyl peroxide, benzoyl peroxide] |  |  |  |  | levels of benzene formed [4]: may be protected from forming benzene levels
6 | O [water] |  |  |  | most dramatic reduction in, or complete prevention of, benzene levels | 
